ChEMBL document CHEMBL2177022, “Novel acidic 11β-hydroxysteroid dehydrogenase type 1 (11β-HSD1) inhibitor with reduced acyl glucuronide liability: the discovery of 4-[4-(2-adamantylcarbamoyl)-5-tert-butyl-pyrazol-1-yl]benzoic acid (AZD8329)” (J Med Chem, 2012)
The source made the active and inactive calls. No cut-off for these calls is given here.

Key:
[1] = Oral bioavailability in rat; type: ADME, organism-based; conditions: in vivo
[2] = target: 17-beta-hydroxysteroid dehydrogenase type 3 (Homo sapiens) (UniProt P37058); assay: Inhibition of 17beta-HSD3 assessed as conversion of androstenedione to testosterone at 10 uM by scintillation counting method
[3] = target: CYP2C19 (Homo sapiens, UniProt P33261); assay: Inhibition of CYP2C19 at 10 uM; type: ADME
[4] = Oral bioavailability in mouse at 1 and 3 mg/kg; type: ADME, organism-based; conditions: in vivo
[5] = target: 11-beta-hydroxysteroid dehydrogenase 1 (Rattus norvegicus, UniProt P16232); assay: Inhibition of N-terminal 6-His tagged full length rat 11betaHSD1 incubated for 25 mins by HTRF assay
[6] = Intrinsic clearance in rat hepatocytes assessed per 10^6 cells
[7] = Percentage unbound in human plasma at 37 degC by equilibrium dialysis method; type: ADME, cell-free
[8] = Half life in rat at 1 and 3 mg/kg, iv; type: ADME, organism-based; set-up: dose 3 mg/kg, route intravenous; conditions: in vivo
[9] = Volume of distribution at steady state in dog at 1 and 3 mg/kg; type: ADME, organism-based, Canis lupus familiaris; set-up: dose 3 mg/kg; conditions: in vivo, read-out: Vdss
[10] = tested on: Salmonella typhimurium; assay: Genotoxicity in Salmonella typhimurium by Ames test; type: toxicity, organism-based; conditions: salmonella enterica subsp. enterica serovar typhimurium
[11] = target: 17-beta-hydroxysteroid dehydrogenase type 1 (Homo sapiens, UniProt P14061); assay: Inhibition of 17beta-HSD1 assessed as conversion of estrone to estradiol by scintillation counting method
[12] = Inhibition of N-terminal 6-His tagged full length dog 11betaHSD1 incubated for 25 mins by HTRF assay; set-up: species or system Canis lupus familiaris
[13] = Half life in dog at 1 and 3 mg/kg, po; type: ADME, organism-based, Canis lupus familiaris; set-up: dose 3 mg/kg, route oral; conditions: in vivo
[14] = target: T1, 11-beta-hydroxysteroid dehydrogenase 1 (Homo sapiens, UniProt P28845); assay: Inhibition of 11betaHSD1 in human adipocytes assessed as cortisone to cortisol conversion by scintillation counting method; type: cell-based
[15] = tested on: Cavia porcellus; assay: Toxicity in anesthetized guinea pig monophasic action potential model assessed as ventricular repolarization; type: organism-based, Cardiac ventricle; conditions: in vivo
[16] = Lipophilicity, log D at pH 7.4 by shake flask method; conditions: buffer
[17] = Half life in dog at 1 and 3 mg/kg, iv; type: ADME, organism-based, Canis lupus familiaris; set-up: dose 3 mg/kg, route intravenous; conditions: in vivo
[18] = tested on: L5178Y; assay: Genotoxicity in mouse L5178Y cells; type: toxicity, cell-based
[19] = tested on: Hepatocyte; assay: Stability in rat hepatocytes assessed as parent compound remaining; type: ADME, cell-based
[20] = Percentage unbound in mouse plasma at 37 degC by equilibrium dialysis method; type: ADME, cell-free
[21] = in vivo; conditions: rat
[22] = tested on: Hepatocyte; assay: Stability in human hepatocytes assessed as parent compound remaining; type: ADME, cell-based
[23] = Oral bioavailability in dog at 1 and 3 mg/kg; type: ADME, organism-based, Canis lupus familiaris; conditions: in vivo
[24] = target: Mineralocorticoid receptor (Homo sapiens) (UniProt P08235); assay: Inhibition of mineralocorticoid receptor
[25] = Oral bioavailability in rat at 1 and 3 mg/kg; type: ADME, organism-based; conditions: in vivo
[26] = Plasma clearance in mouse at 1 and 3 mg/kg; type: ADME, organism-based; set-up: dose 3 mg/kg
[27] = tested on: Canis familiaris; assay: Renal clearance in dog at 1 and 3 mg/kg relative to total clearance; type: ADME, organism-based, Canis lupus familiaris, Kidney; set-up: dose 3 mg/kg; conditions: in vivo
[28] = target: CYP2D6 (Homo sapiens, UniProt P10635); assay: Inhibition of CYP2D6 at 10 uM; type: ADME
[29] = tested on: Liver microsomes; assay: Stability in human liver microsomes assessed as oxidative metabolism-mediated generation of reactive metabolites; type: ADME, Microsome
[30] = Inhibition of N-terminal 6-His tagged full length cynomolgus monkey 11betaHSD1 incubated for 25 mins by HTRF assay; set-up: species or system Macaca fascicularis
[31] = Stability in dog hepatocytes assessed as parent compound remaining; type: ADME, cell-based, Canis lupus familiaris, Hepatocyte
[32] = Drug metabolism in bile duct cannulated rat bile assessed as oxidative metabolism level during 0 to 6 hrs post dose by metabolism-ID study; type: ADME; conditions: in vivo
[33] = Plasma clearance in dog at 1 and 3 mg/kg; type: ADME, organism-based, Canis lupus familiaris; set-up: dose 3 mg/kg
[34] = Percentage unbound in rat plasma at 37 degC by equilibrium dialysis method; type: ADME, cell-free
[35] = Aqueous solubility in pH 7.4 phosphate buffer at 25 degC incubated for 24 hrs; type: physicochemical
[36] = tested on: Rattus norvegicus; assay: Renal clearance in rat at 1 and 3 mg/kg relative to total clearance; type: ADME, organism-based, Kidney; set-up: dose 3 mg/kg; conditions: in vivo
[37] = tested on: Rattus norvegicus; assay: Inhibition of 11betaHSD1 in lean Han Wistar rat adipose tissue assessed as reduction in assessed as [3H]cortisone to [3H]cortisol conversion at 10 mg/kg, po measured 3 hrs post dose; type: functional, organism-based; set-up: dose 10 mg/kg
[38] = Stability in bile duct cannulated rat bile assessed as parent compound remaining measured during 0 to 6 hrs post dose; type: ADME; conditions: in vivo
[39] = target: T1, 11-beta-hydroxysteroid dehydrogenase 1
Description: Inhibition of N-terminal 6-His tagged full length human 11betaHSD1 incubated for 25 mins by HTRF assay

[40] = target: CYP3A4 (Homo sapiens, UniProt P08684); assay: Inhibition of CYP3A4 at 10 uM; type: ADME
[41] = Half life in mouse at 1 and 3 mg/kg, iv; type: ADME, organism-based; set-up: dose 3 mg/kg, route intravenous; conditions: in vivo
[42] = Stability in bile duct cannulated rat urine assessed as parent compound remaining measured during 0 to 6 hrs post dose; type: ADME, tissue-based; conditions: in vivo
[43] = target: CYP1A2 (Homo sapiens, UniProt P05177); assay: Inhibition of CYP1A2 at 10 uM; type: ADME
[44] = target: 11-beta-hydroxysteroid dehydrogenase 1 (Mus musculus, UniProt P50172); assay: Inhibition of N-terminal 6-His tagged full length mouse 11betaHSD1 incubated for 25 mins by HTRF assay
[45] = Apparent permeability from basolateral to apical side in MDCK cells at 10 uM; type: ADME, cell-based, Canis lupus familiaris; conditions: dog
[46] = Volume of distribution at steady state in mouse at 1 and 3 mg/kg; type: ADME, organism-based; set-up: dose 3 mg/kg; conditions: in vivo, read-out: Vdss
[47] = tested on: Rattus norvegicus; assay: Inhibition of 11betaHSD1 in lean Han Wistar rat liver assessed as reduction in assessed as [3H]cortisone to [3H]cortisol conversion at 3 mg/kg, po measured 3 hrs post dose; type: functional
[48] = Drug metabolism in dog hepatocytes assessed as oxidative metabolism level by metabolism-ID study; type: ADME, cell-based, Canis lupus familiaris, Hepatocyte
[49] = target: 11-beta-hydroxysteroid dehydrogenase type 2 (Homo sapiens, UniProt P80365); assay: Inhibition of 11beta-HSD2 assessed as conversion of cortisol to cortisone by fluorescence based assay
[50] = target: CYP2C9 (Homo sapiens, UniProt P11712); assay: Inhibition of CYP2C9 at 10 uM; type: ADME
[51] = Drug metabolism in bile duct cannulated rat urine assessed as oxidative metabolism level during 0 to 6 hrs post dose by metabolism-ID study; type: ADME, tissue-based; conditions: in vivo
[52] = Volume of distribution at steady state in rat at 1 and 3 mg/kg; type: ADME, organism-based; set-up: dose 3 mg/kg; conditions: in vivo, read-out: Vdss
[53] = Percentage unbound in dog plasma at 37 degC by equilibrium dialysis method; type: ADME, cell-free, Canis lupus familiaris
[54] = Plasma clearance in rat at 1 and 3 mg/kg; type: ADME, organism-based; set-up: dose 3 mg/kg
[55] = target: Glucocorticoid receptor (Homo sapiens) (UniProt P04150); assay: Inhibition of glucocorticoid receptor
[56] = Apparent permeability from apical to basolateral side in MDCK cells at 10 uM; type: ADME, cell-based, Canis lupus familiaris; conditions: dog
[57] = Half life in mouse at 1 and 3 mg/kg, po; type: ADME, organism-based; set-up: dose 3 mg/kg, route oral; conditions: in vivo
[58] = Half life in rat at 1 and 3 mg/kg, po; type: ADME, organism-based; set-up: dose 3 mg/kg, route oral; conditions: in vivo

T1 sequence (P28845 whole entry): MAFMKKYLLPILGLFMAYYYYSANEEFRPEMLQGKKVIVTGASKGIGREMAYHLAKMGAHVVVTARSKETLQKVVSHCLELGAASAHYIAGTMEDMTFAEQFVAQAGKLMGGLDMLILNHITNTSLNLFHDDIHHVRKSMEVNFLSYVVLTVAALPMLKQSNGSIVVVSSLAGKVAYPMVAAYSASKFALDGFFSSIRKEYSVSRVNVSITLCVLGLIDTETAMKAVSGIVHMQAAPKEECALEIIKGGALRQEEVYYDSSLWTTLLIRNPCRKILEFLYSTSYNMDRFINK
Chain of CYP2C19 (P33261 whole entry): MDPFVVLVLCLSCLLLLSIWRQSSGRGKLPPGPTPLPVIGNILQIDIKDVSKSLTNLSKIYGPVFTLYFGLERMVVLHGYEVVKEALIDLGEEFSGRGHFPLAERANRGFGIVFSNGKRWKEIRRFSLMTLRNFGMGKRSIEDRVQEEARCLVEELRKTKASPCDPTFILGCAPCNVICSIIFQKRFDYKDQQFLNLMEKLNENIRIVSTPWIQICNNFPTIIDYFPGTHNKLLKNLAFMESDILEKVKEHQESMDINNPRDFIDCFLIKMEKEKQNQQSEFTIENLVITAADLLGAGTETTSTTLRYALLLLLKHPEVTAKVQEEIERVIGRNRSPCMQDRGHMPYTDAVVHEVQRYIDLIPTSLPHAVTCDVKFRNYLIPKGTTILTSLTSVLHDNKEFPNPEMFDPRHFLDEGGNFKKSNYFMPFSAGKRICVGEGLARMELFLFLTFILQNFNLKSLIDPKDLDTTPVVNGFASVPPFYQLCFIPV
Chain of 11-beta-hydroxysteroid dehydrogenase 1 (Mus musculus, UniProt P50172) (P50172 whole entry): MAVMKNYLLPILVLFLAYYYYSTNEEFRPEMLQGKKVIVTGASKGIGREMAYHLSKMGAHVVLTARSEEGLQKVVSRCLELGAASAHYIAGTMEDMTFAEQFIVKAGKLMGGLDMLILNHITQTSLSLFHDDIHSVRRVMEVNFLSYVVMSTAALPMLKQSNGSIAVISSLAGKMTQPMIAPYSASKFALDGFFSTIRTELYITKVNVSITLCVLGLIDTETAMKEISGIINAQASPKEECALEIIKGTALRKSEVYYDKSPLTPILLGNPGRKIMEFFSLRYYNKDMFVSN
Chain of CYP2C9 (P11712 whole entry): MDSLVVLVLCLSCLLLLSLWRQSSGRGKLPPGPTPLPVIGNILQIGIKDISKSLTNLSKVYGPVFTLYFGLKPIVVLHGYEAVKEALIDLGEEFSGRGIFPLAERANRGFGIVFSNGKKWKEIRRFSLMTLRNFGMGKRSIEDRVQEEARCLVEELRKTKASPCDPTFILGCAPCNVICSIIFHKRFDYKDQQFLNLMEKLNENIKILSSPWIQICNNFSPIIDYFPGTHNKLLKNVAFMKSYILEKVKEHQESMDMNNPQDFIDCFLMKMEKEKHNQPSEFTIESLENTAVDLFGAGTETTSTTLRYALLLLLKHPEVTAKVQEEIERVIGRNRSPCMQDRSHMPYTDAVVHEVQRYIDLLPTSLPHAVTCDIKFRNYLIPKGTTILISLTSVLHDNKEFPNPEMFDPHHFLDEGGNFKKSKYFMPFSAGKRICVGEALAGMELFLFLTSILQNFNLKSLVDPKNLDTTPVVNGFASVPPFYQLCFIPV
Chain of 11-beta-hydroxysteroid dehydrogenase type 2 (P80365 whole entry): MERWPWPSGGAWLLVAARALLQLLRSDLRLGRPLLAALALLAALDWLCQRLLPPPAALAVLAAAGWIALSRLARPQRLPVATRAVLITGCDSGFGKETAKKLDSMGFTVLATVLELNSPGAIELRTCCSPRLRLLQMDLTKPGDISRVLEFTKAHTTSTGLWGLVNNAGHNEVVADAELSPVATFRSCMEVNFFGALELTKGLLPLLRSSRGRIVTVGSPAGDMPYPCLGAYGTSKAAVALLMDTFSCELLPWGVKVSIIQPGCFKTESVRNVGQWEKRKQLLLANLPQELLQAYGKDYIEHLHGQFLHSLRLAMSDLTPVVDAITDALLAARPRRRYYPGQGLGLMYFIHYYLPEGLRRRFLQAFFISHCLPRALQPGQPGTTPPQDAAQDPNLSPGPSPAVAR
Chain of 11-beta-hydroxysteroid dehydrogenase 1 (Rattus norvegicus, UniProt P16232) (P16232 whole entry): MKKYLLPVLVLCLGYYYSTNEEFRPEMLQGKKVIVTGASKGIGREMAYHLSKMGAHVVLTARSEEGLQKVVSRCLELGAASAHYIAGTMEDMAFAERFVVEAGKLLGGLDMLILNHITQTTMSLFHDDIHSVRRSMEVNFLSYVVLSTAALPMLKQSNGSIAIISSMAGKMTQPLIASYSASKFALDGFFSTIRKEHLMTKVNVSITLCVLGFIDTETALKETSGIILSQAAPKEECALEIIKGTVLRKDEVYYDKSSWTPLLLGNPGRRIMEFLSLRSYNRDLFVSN
Chain of CYP3A4 (P08684 whole entry): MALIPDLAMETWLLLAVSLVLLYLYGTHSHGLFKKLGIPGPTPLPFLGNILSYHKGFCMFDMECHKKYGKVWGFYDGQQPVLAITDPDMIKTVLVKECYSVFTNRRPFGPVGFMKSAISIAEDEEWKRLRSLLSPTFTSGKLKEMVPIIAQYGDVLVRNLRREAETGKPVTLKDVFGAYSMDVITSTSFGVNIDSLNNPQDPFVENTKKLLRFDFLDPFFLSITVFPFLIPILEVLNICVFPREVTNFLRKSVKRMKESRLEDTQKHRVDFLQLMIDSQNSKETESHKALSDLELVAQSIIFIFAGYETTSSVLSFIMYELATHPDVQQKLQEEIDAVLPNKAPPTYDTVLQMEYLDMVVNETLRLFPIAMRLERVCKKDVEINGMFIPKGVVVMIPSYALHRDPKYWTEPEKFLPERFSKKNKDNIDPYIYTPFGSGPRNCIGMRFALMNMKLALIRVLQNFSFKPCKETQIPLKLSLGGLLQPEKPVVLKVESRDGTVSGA
Chain of Glucocorticoid receptor (Homo sapiens) (P04150 whole entry): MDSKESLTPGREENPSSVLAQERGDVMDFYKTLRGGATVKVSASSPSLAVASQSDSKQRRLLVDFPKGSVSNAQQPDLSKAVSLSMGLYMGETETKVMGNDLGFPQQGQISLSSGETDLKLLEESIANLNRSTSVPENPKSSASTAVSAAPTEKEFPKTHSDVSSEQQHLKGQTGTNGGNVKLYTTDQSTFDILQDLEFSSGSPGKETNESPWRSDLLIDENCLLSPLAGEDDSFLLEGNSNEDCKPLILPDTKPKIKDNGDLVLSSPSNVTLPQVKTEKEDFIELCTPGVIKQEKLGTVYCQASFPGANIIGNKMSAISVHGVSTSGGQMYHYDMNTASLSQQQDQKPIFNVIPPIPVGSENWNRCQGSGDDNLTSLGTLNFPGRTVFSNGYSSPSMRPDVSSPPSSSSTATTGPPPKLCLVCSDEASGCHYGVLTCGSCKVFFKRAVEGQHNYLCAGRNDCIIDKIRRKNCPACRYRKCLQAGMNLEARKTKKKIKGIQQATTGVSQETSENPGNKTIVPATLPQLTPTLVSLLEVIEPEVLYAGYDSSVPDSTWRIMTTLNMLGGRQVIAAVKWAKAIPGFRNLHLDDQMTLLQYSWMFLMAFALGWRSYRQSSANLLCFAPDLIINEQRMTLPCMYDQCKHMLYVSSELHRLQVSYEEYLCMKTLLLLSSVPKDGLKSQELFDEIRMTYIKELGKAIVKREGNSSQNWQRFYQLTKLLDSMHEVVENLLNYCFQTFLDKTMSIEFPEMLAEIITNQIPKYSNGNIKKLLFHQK
Chain of 17-beta-hydroxysteroid dehydrogenase type 3 (Homo sapiens) (P37058 whole entry): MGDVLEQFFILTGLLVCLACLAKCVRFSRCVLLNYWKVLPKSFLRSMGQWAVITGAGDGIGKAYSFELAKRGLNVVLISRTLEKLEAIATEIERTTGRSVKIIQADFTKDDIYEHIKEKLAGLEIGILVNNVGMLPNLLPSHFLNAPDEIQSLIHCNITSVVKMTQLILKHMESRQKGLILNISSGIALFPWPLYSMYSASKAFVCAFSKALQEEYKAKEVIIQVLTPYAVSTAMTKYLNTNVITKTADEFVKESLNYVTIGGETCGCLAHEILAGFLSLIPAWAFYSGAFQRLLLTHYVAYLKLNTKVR
Chain of 17-beta-hydroxysteroid dehydrogenase type 1 (P14061 whole entry): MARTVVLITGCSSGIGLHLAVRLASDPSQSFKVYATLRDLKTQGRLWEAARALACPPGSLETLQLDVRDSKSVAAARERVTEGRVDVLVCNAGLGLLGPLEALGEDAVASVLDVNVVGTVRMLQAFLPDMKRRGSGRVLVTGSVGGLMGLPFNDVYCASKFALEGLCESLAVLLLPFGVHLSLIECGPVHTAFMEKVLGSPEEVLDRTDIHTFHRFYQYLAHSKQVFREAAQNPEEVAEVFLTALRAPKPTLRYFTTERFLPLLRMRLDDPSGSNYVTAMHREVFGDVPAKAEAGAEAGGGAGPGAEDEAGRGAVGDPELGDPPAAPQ
Chain of CYP1A2 (P05177 whole entry): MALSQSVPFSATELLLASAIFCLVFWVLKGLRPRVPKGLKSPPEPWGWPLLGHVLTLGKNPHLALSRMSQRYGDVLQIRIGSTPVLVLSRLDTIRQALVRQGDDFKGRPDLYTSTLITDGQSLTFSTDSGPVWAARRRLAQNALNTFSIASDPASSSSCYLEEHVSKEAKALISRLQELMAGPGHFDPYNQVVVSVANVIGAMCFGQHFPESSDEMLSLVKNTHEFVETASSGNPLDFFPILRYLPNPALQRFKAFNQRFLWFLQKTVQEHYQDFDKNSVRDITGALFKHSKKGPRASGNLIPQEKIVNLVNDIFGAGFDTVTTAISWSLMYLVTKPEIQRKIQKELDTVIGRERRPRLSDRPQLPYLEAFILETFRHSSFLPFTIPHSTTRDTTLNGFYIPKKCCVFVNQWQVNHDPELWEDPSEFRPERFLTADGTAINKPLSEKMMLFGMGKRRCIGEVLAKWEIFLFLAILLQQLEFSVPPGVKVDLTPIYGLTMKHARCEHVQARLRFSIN

## CC(C)(C)c1c(C(=O)NC2C3CC4CC(C3)CC2C4)cnn1-c1ccc(C(=O)O)cc1 (stereo not drawn)
[1]
  bioavailability: 95%
[2]
  inhibition: < 5%
[3]
  inhibition at 10 µM: < 25%
[4]
  bioavailability: 100%
[5]
  IC50: 86 nM
[6]
  hepatocyte CLint: < 2 µL/min/1e6 cells
[7]
  fraction unbound: 0.014
[8]
  half-life: 348 min
[9]
  Vd: 0.1 L/kg
[10]
  Activity: Non-toxic
[11]
  IC50: > 30 µM
[12]
  IC50: 8 nM
[13]
  half-life: 306 min
[14]
  IC50: 2 nM
[15]
  Activity: Non-toxic
[16]
  logD: 1
[17]
  half-life: 330 min
[18]
  Activity: Non-toxic
[19]
  Stability: 96%
[20]
  fraction unbound: 0.035
[21]
  clearance: 0.6 mL/min/kg
[22]
  Stability: 95%
[23]
  bioavailability: 45%
[24]
  inhibition: inactive
[25]
  bioavailability: 95%
[26]
  clearance: 9 mL/min/kg
[27]
  CL: < 5%
[28]
  inhibition at 10 µM: < 25%
[29]
  Stability: Stable
[30]
  IC50: 24 nM
[31]
  Stability: 93.7%
[32]
  Drug metabolism: 80.1%
[33]
  clearance: 0.3 mL/min/kg
[34]
  fraction unbound: 0.013
[35]
  solubility at 24 h: > 1900 µM
[36]
  CL: < 1%
[37]
  inhibition: Active
[38]
  Stability: 10.8%
[39]
  IC50: 9 nM
[40]
  inhibition at 10 µM: < 25%
[41]
  half-life: 48 min
[42]
  Stability: 99.4%
[43]
  inhibition at 10 µM: < 25%
[44]
  IC50: 6.1 µM
[45]
  Papp B→A at 10 µM: 3.9 ×10⁻⁶ cm/s
[46]
  Vd: 0.4 L/kg
[47]
  inhibition in vivo at 3 mg/kg: 50%
[48]
  Drug metabolism: 5.8%
[49]
  IC50: > 30 µM
[50]
  inhibition at 10 µM: < 25%
[51]
  Drug metabolism: 0.2%
[52]
  Vd: 0.3 L/kg
[53]
  fraction unbound: 0.02
[54]
  clearance: 0.6 mL/min/kg
[55]
  inhibition: inactive
[56]
  Papp A→B at 10 µM: 7.3 ×10⁻⁶ cm/s
[57]
  half-life: 132 min
[58]
  half-life: 294 min
